From the supplement of paper PMC10307832

What was measured:
Assay in all cases: relative viability (nuclei count vs DMSO), 5 days (fraction); higher = more cells survive
IPA-3 + Navitoclax = compound: C1=CC=C2C(=C1)C=CC(=C2SSC3=C(C=CC4=CC=CC=C43)O)O [IPA-3] + CC1(C)CCC(c2ccc(Cl)cc2)=C(CN2CCN(c3ccc(C(=O)NS(=O)(=O)c4ccc(N[C@H](CCN5CCOCC5)CSc5ccccc5)c(S(=O)(=O)C(F)(F)F)c4)cc3)CC2)C1 [Navitoclax] (partner 0.5 µM)
In short: (§1)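 After 5 days of treatment, lung cancer cells in 1536-well plates were fixed and stained in a single step (final 0.05% Triton X-100, 1% formaldehyde, 1 ug/ml Hoechst) and their nuclei counted on 4× images. Treatment had been applied by pin tool the day after seeding as one drug alone or as a fixed anchor-drug dose with five library-drug doses (not always all listed) in √10 steps. Relative viability is the nuclei count of treated wells divided by that of vehicle wells, and values are medians of duplicate plates.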

[1] = compound: Cc1ccc(-n2nc(C(C)(C)C)cc2NC(=O)Nc2ccc(OCCN3CCOCC3)c3ccccc23)cc1 [Doramapimod] + CC(=O)c1c(C)c2cnc(Nc3ccc(N4CCNCC4)cn3)nc2n(C2CCCC2)c1=O [Palbociclib] (partner 0.5 µM)
In short: as §1

Doramapimod + Navitoclax = compound: Cc1ccc(-n2nc(C(C)(C)C)cc2NC(=O)Nc2ccc(OCCN3CCOCC3)c3ccccc23)cc1 [Doramapimod] + CC1(C)CCC(c2ccc(Cl)cc2)=C(CN2CCN(c3ccc(C(=O)NS(=O)(=O)c4ccc(N[C@H](CCN5CCOCC5)CSc5ccccc5)c(S(=O)(=O)C(F)(F)F)c4)cc3)CC2)C1 [Navitoclax] (partner 0.5 µM)
In short: as §1

RAF265 + Pemetrexed = compound: Cn1c(Nc2ccc(C(F)(F)F)cc2)nc2cc(Oc3ccnc(-c4ncc(C(F)(F)F)[nH]4)c3)ccc21 [RAF265] + Nc1nc2[nH]cc(CCc3ccc(C(=O)N[C@@H](CCC(=O)O)C(=O)O)cc3)c2c(=O)[nH]1 [Pemetrexed] (partner 0.2 µM)
In short: as §1

| Cell Line | relative viability (IPA-3 + Navitoclax; first compound 0.2 µM) | relative viability (IPA-3 + Navitoclax; first compound 0.6325 µM) | relative viability (IPA-3 + Navitoclax; first compound 2 µM) | relative viability (IPA-3 + Navitoclax; first compound 6.325 µM) | relative viability (IPA-3 + Navitoclax; first compound 20 µM) | relative viability ([1]; first compound 0.02 µM) | relative viability ([1]; first compound 0.06325 µM) | relative viability ([1]; first compound 0.2 µM) | relative viability ([1]; first compound 0.6325 µM) | relative viability ([1]; first compound 2 µM) | relative viability (Doramapimod + Navitoclax; first compound 0.02 µM) | relative viability (Doramapimod + Navitoclax; first compound 0.06325 µM) | relative viability (Doramapimod + Navitoclax; first compound 0.2 µM) | relative viability (Doramapimod + Navitoclax; first compound 0.6325 µM) | relative viability (Doramapimod + Navitoclax; first compound 2 µM) | relative viability (RAF265 + Pemetrexed; first compound 0.01 µM) | relative viability (RAF265 + Pemetrexed; first compound 0.03162 µM) | relative viability (RAF265 + Pemetrexed; first compound 0.1 µM) | relative viability (RAF265 + Pemetrexed; first compound 0.3162 µM) | relative viability (RAF265 + Pemetrexed; first compound 1 µM) |
| --- | --- | --- | --- | --- | --- | --- | --- | --- | --- | --- | --- | --- | --- | --- | --- | --- | --- | --- | --- | --- |
| NCI-H2126 | 0.861 | 0.816 | 0.828 | 0.892 | 0.891 | 0.378 | 0.352 | 0.373 | 0.336 | 0.326 | 0.791 | 0.843 | 0.743 | 0.881 | 0.738 | 0.703 | 0.669 | 0.65 | 0.605 | 0.554 |
| NCI-H1944 | 1.07 | 0.899 | 1.1 | 1.07 | 1.02 | 0.321 | 0.306 | 0.322 | 0.307 | 0.271 | 1 | 1.11 | 1.05 | 1.17 | 1.08 | 0.849 | 0.859 | 0.632 | 0.405 | 0.472 |
| NCI-H1734 | 1.1 | 0.834 | 0.781 | 0.844 | 1.02 | 0.204 | 0.308 | 0.314 | 0.299 | 0.27 | 0.723 | 0.799 | 0.692 | 0.77 | 0.572 | 0.386 | 0.43 | 0.469 | 0.507 | 0.417 |
| A-427 | 0.996 | 0.857 | 0.98 | 0.856 | 0.99 | 0.488 | 0.521 | 0.52 |  | 0.54 | 1.02 | 1.01 | 1.02 |  | 1.08 | 1.06 | 0.939 | 1.03 | 0.678 | 0.468 |
| RERF-LC-KJ | 1.53 | 0.879 | 1.1 | 0.877 | 1.06 | 1.11 | 1.04 | 1.06 | 1.17 | 1.2 | 1.09 | 1.35 | 0.858 | 0.853 | 1.01 | 0.504 | 0.482 | 0.503 | 0.46 | 0.51 |
| LCLC-97TM1 | 0.599 | 0.4 | 0.36 | 0.359 | 0.451 | 0.233 | 0.211 | 0.257 | 0.219 | 0.171 | 0.372 | 0.434 | 0.525 | 0.51 | 0.371 | 0.145 | 0.155 | 0.149 | 0.153 | 0.128 |
| BEN | 0.0641 | 0.0847 | 0.0621 | 0.0718 | 0.0865 | 0.462 | 0.459 | 0.504 | 0.387 | 0.541 | 0.0531 | 0.0454 | 0.0875 | 0.0584 | 0.0743 | 0.795 | 0.835 | 0.99 | 0.798 | 0.692 |
| NCI-H2023 | 1.1 | 0.977 | 0.984 | 1.04 | 0.967 | 0.299 | 0.367 | 0.296 | 0.392 | 0.323 | 1.09 | 1.08 | 0.892 | 1 | 0.948 | 0.21 | 0.251 | 0.21 | 0.251 | 0.236 |
| LC-2-ad | 0.526 | 0.334 | 0.444 | 0.454 | 0.685 | 0.521 | 0.467 | 0.502 | 0.529 | 0.529 | 0.399 | 0.342 | 0.377 | 0.422 | 0.357 | 0.275 | 0.3 | 0.288 | 0.292 | 0.258 |
| NCI-H647 | 1.54 | 1.02 | 1.15 | 0.589 | 0.554 | 0.346 | 0.335 | 0.375 | 0.404 | 0.345 | 1.09 | 1.13 | 1.12 | 1.09 | 1.12 | 0.156 | 0.161 | 0.174 | 0.142 | 0.178 |
| NCI-H1755 | 1.07 | 1.01 | 1 | 1.03 | 1.02 | 0.478 | 0.484 | 0.444 | 0.416 | 0.418 | 0.997 | 1 | 1 | 1.06 | 0.968 | 0.771 | 0.361 | 0.503 | 0.519 | 0.497 |
| EPLC-272H | 1.25 | 1.4 | 1.16 | 1.21 | 1.18 | 0.356 | 0.342 | 0.345 |  | 0.286 | 1.14 | 0.943 | 1.12 | 1.23 | 0.978 | 0.327 | 0.319 | 0.406 | 0.213 | 0.177 |
| NCI-H1437 | 1.16 | 0.997 | 1.19 | 1.02 | 1.15 | 0.337 | 0.31 | 0.278 | 0.368 | 0.304 | 1.09 | 1.1 | 1.16 | 1.09 | 1.05 | 0.346 | 0.296 | 0.326 | 0.285 | 0.278 |
| EKVX | 1.05 | 0.608 | 1.05 | 0.851 | 1.23 | 0.427 | 0.351 | 0.366 | 0.337 | 0.342 | 0.677 | 0.915 | 0.936 | 0.895 | 0.934 | 0.373 | 0.44 | 0.456 | 0.255 | 0.358 |
| NCI-H1651 | 1.06 |  | 0.998 | 1.1 | 1.19 | 0.478 | 0.523 | 0.47 | 0.511 | 0.516 | 0.624 | 0.911 | 0.996 | 1.04 | 1.06 | 0.587 | 0.567 | 0.431 | 0.494 | 0.532 |
| HCC-15 | 0.693 | 0.65 | 0.642 | 0.725 | 0.748 | 0.548 | 0.772 | 0.755 | 0.686 | 0.525 | 0.657 | 0.629 | 0.726 | 0.691 | 0.634 | 0.232 | 0.232 | 0.231 | 0.235 | 0.23 |
